*1 amine or outer side, *2 acyl side, *3 side chain or, on linkers, in order; H or OH if unused. Where a SMILES comes first, the peptide text is derived from it. Bridges are numbered along the chain shown (N, C = ends). [ ]: non-standard residue; d: D form. The star is where a group is joined. hPhe(3,5-F2-4-CF3) = N[C@@H](CCc1cc(F)c(C(F)(F)F)c(F)c1)C(=O)O; X25 = O=C([C@H](Cc1ccc(C(F)(F)F)cc1)N(CCC(F)(F)F)[*:1])[*:2]; hPhe(3-Cl-4-CF3) = N[C@@H](CCc1ccc(C(F)(F)F)c(Cl)c1)C(=O)O; NPrPhe(4-CF3) = CCCN[C@@H](Cc1ccc(C(F)(F)F)cc1)C(=O)O; NMePhe(4-Me) = CN[C@@H](Cc1ccc(C)cc1)C(=O)O; NMeGly(cPent) = CN[C@H](C(=O)O)C1CCCC1; Pro(4,4-F2) = O=C(O)[C@@H]1CC(F)(F)CN1; Nva(3-Et) = CCC(CC)[C@H](N)C(=O)O; NMeD = CN[C@@H](CC(=O)O)C(=O)O; NMeL = CN[C@@H](CC(C)C)C(=O)O; hPip = O=C(O)[C@@H]1CCCCCN1; Morpholide = C1CN(*)CCO1; NMeA = CN[C@@H](C)C(=O)O; Ac5c = NC1(C(=O)O)CCCC1; Aze = O=C(O)[C@@H]1CCN1; Ac4c = NC1(C(=O)O)CCC1; NEtG = CCNCC(=O)O; Sar = CNCC(=O)O
How the values were obtained:
[1] = target: GDP-bound NRAS wild-type protein (Homo sapiens, UniProt P01111); experiment: Binding to NRAS by surface plasmon resonance (SPR), KD and KD ratio to KRAS
GDP-bound NRAS wild-type protein, sequence (P01111 whole entry): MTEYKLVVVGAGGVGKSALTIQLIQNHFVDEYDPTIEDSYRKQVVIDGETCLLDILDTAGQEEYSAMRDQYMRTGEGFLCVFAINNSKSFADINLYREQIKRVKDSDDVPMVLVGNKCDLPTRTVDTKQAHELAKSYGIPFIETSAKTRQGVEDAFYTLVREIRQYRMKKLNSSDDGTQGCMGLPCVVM
Outline: (§1)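 Compound binding is evaluated by SPR single-cycle kinetics, with concentrations added intermittently from low to high for 75 s each. Target surfaces carry GDP-loaded biotinylated Avi-RAS at about 100–300 RU, regenerated after each cycle; temperature 30°C. A 1:1 binding model gives KD.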

[2] = target: HRAS wild-type protein (Homo sapiens, UniProt P01112); experiment: Binding to HRAS by surface plasmon resonance (SPR), KD and KD ratio to KRAS
HRAS wild-type protein, sequence (P01112 whole entry): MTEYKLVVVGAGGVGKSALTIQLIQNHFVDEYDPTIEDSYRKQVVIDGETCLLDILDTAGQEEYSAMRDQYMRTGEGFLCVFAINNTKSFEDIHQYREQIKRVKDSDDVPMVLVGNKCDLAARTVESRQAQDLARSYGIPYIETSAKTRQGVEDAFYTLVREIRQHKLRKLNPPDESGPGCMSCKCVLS
Outline: as §1

[3] = test system: human lung cancer strain NCI-H441; assay type: cell-based
Outline: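 Proliferation was scored by […] measured after the reagent was added to cultures kept at 37°C in 5% carbon dioxide.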

[4] = ratio of the KD value with respect to GDP-bound NRAS wild-type protein to the KD value with respect to KRAS
[5] = ratio of the KD value with respect to HRAS wild-type protein to the KD value with respect to KRAS
[6] = ratio of KD for GDP-bound NRAS wild-type protein to KD for KRAS
[7] = ratio of KD for HRAS wild-type protein to KD for KRAS

| SMILES | IC50 [3] [nM] | NRAS /KRAS [1, 4] | HRAS /KRAS [2, 5] | NRAS /KRAS [1, 6] | HRAS /KRAS [2, 7] |
| --- | --- | --- | --- | --- | --- |
| CCCN1C(=O)CN(C)C(=O)CN(CC)C(=O)[C@H]([C@@H](C)CC)NC(=O)[C@@H]2CCCCCN2C(=O)C[C@@H](C(=O)N2CCOCC2)N(C)C(=O)[C@H](C2CCCC2)N(C)C(=O)C2(CCCC2)NC(=O)[C@@H]2CCCN2C(=O)[C@H](CCc2ccc(C(F)(F)F)c(Cl)c2)NC(=O)CN(C)C(=O)[C@@H]1Cc1ccc(C(F)(F)F)cc1 [PP0289] ([hPip]I[NEtG][Sar][NPrPhe(4-CF3)][Sar][hPhe(3-Cl-4-CF3)]P[Ac5c][NMeGly(cPent)][NMeD]-Morpholide; lactam N-11) | 76.4 |  |  | B (a compound having 3 or more and less than 10 is denoted as B) | B (a compound having 3 or more and less than 10 is denoted as B) |
| CC[C@H](C)[C@@H]1NC(=O)[C@H](CC(C)C)N(C)C(=O)C[C@@H](C(=O)N2CCOCC2)N(C)C(=O)[C@H](C2CCCC2)N(C)C(=O)C2(CCCC2)NC(=O)[C@@H]2CCCN2C(=O)[C@H](CCc2ccc(C(F)(F)F)c(Cl)c2)NC(=O)CN(C)C(=O)[C@H](Cc2ccc(C(F)(F)F)cc2)N(CCC(F)(F)F)C(=O)[C@@H]2CCN2C(=O)[C@H](C)N(C)C1=O [PP0117] ([NMeL]I[NMeA][Aze][X25][Sar][hPhe(3-Cl-4-CF3)]P[Ac5c][NMeGly(cPent)][NMeD]-Morpholide; lactam N-11) | 9.2 |  |  | B (a compound having 3 or more and less than 10 is denoted as B) | B (a compound having 3 or more and less than 10 is denoted as B) |
| CCCN1C(=O)CN(C)C(=O)CN(C)C(=O)[C@H]([C@@H](C)CC)NC(=O)[C@H](CC(C)C)N(C)C(=O)C[C@@H](C(=O)N(C)C)NC(=O)[C@H](C2CCCC2)N(C)C(=O)C2(CCCC2)NC(=O)[C@@H]2CC(F)(F)CN2C(=O)[C@H](CCc2ccc(C(F)(F)F)c(Cl)c2)NC(=O)CN(C)C(=O)[C@@H]1Cc1ccc(C(F)(F)F)cc1 [PP0357] ([NMeL]I[Sar][Sar][NPrPhe(4-CF3)][Sar][hPhe(3-Cl-4-CF3)][Pro(4,4-F2)][Ac5c][NMeGly(cPent)]D-NMe2; lactam N-11) | 39.8 |  |  | B (a compound having 3 or more and less than 10 is denoted as B) | B (a compound having 3 or more and less than 10 is denoted as B) |
| CCO[C@@H]1C[C@H]2C(=O)NC3(CCC3)C(=O)N(C)[C@@H](C3CCCC3)C(=O)N(C)[C@H](C(=O)N(C)C)CC(=O)N(C)[C@@H](CC)C(=O)N[C@@H]([C@@H](C)CC)C(=O)N3CC[C@H]3C(=O)N(C)[C@H]3C/C=C\CCN(C3=O)[C@@H](Cc3ccc(C(F)(F)F)cc3)C(=O)N(C)CC(=O)N[C@@H](CCc3cc(F)c(C(F)(F)F)c(F)c3)C(=O)N2C1 [PP0984] | 64.6 |  |  | A (a compound having 10 or more and less than 20 is denoted as A) | A (a compound having 10 or more and less than 20 is denoted as A) |
| CCCN1C(=O)CN(C)C(=O)CN(C)C(=O)[C@H](C(CC)CC)NC(=O)[C@H](CC(C)C)N(C)C(=O)C[C@@H](C(=O)N2CCOCC2)N(C)C(=O)[C@H](C2CCCC2)N(C)C(=O)C2(CCCC2)NC(=O)[C@@H]2CCCN2C(=O)[C@H](CCc2cc(F)c(C(F)(F)F)c(F)c2)NC(=O)CN(C)C(=O)[C@@H]1Cc1ccc(C(F)(F)F)cc1 [PP0768] ([NMeL][Nva(3-Et)][Sar][Sar][NPrPhe(4-CF3)][Sar][hPhe(3,5-F2-4-CF3)]P[Ac5c][NMeGly(cPent)][NMeD]-Morpholide; lactam N-11) | 36.1 |  |  | B (a compound having 3 or more and less than 10 is denoted as B) | C (A compound having a KD ratio of 0.1 or more and less than 3 is denoted as C) |
| CCO[C@@H]1C[C@H]2C(=O)NC3(CCC3)C(=O)N(C)[C@@H](C3CCCC3)C(=O)N(C)[C@H](C(=O)N(C)C)CC(=O)N(C)[C@@H](CC(F)F)C(=O)N[C@@H]([C@@H](C)CC)C(=O)N(C)CC(=O)N(C)[C@H]3C/C=C\CCN(C3=O)[C@@H](Cc3ccc(C(F)(F)F)cc3)C(=O)N(C)CC(=O)N[C@@H](CCc3cc(F)c(C(F)(F)F)c(F)c3)C(=O)N2C1 [PP1120] | 20.6 |  |  | A (a compound having 10 or more and less than 20 is denoted as A) | A (a compound having 10 or more and less than 20 is denoted as A) |
| CC[C@H](C)[C@@H]1NC(=O)[C@H](CC(C)C)N(C)C(=O)C[C@@H](C(=O)N2CCOCC2)N(C)C(=O)[C@H](C2CCCC2)N(C)C(=O)C2(CCCC2)NC(=O)[C@@H]2CCCN2C(=O)[C@H](CCc2ccc(C(F)(F)F)c(Cl)c2)NC(=O)CN(CC)C(=O)[C@H](Cc2ccc(C)cc2)N(C)C(=O)CN(C)C(=O)CN(C)C1=O [PP0025] ([NMeL]I[Sar][Sar][NMePhe(4-Me)][NEtG][hPhe(3-Cl-4-CF3)]P[Ac5c][NMeGly(cPent)][NMeD]-Morpholide; lactam N-11) | 27.5 |  |  | C (A compound having a KD ratio of 0.1 or more and less than 3 is denoted as C) | C (A compound having a KD ratio of 0.1 or more and less than 3 is denoted as C) |
| CC[C@H](C)[C@@H]1NC(=O)[C@H](CC(C)C)N(C)C(=O)C[C@@H](C(=O)N2CCOCC2)N(C)C(=O)[C@H](C2CCCC2)N(C)C(=O)C2(CCCC2)NC(=O)[C@@H]2CCCN2C(=O)[C@H](CCc2ccc(C(F)(F)F)c(Cl)c2)NC(=O)CN(C)C(=O)[C@H](Cc2ccc(Cl)cc2)N2CC=CC[C@@H](C2=O)N(C)C(=O)CN(C)C1=O [PP0533] | 8.9 | C (A compound having a KD ratio of 0.1 or more and less than 3 is denoted as C) | C (A compound having a KD ratio of 0.1 or more and less than 3 is denoted as C) |  |  |

Second part, led by results:

| IC50 [3] [nM] | SMILES | NRAS /KRAS [1, 4] | HRAS /KRAS [2, 5] | NRAS /KRAS [1, 6] | HRAS /KRAS [2, 7] |
| --- | --- | --- | --- | --- | --- |
| 8.2 | CCC[C@H]1C(=O)N[C@@H]([C@@H](C)CC)C(=O)N(C)CC(=O)N(C)[C@H]2C/C=C\CCN(C2=O)[C@@H](Cc2ccc(C)cc2)C(=O)N(C)CC(=O)N[C@@H](CCc2ccc(C(F)(F)F)c(Cl)c2)C(=O)N2C[C@H](OCC)C[C@H]2C(=O)NC2(CC(C)(C)C2)C(=O)N(C)[C@@H](C(CC)CC)C(=O)N(C)[C@H](C(=O)N(C)C)CC(=O)N1C [PP2146] | A (a compound having 10 or more and less than 20 is denoted as A) | A (a compound having 10 or more and less than 20 is denoted as A) |  |  |
| 13.1 | CC[C@H](C)[C@@H]1NC(=O)[C@H](CC)N(C)C(=O)C[C@@H](C(=O)N(C)C)N(C)C(=O)[C@H](C2CCCC2)N(C)C(=O)C2(CC(C)(C)C2)NC(=O)[C@H](CC)N(C)C(=O)[C@H](CCc2cc(F)c(C(F)(F)F)c(F)c2)NC(=O)CN(C)C(=O)[C@H](Cc2ccc(C(F)(F)F)cc2)N2CC/C=C\C[C@@H](C2=O)N(C)C(=O)CN(C)C1=O [PP1935] | A (a compound having 10 or more and less than 20 is denoted as A) | A (a compound having 10 or more and less than 20 is denoted as A) |  |  |
| 11.3 | CCCN(C)C(=O)[C@@H]1CC(=O)N(C)[C@@H](C2CC2)C(=O)N[C@@H]([C@@H](C)CC)C(=O)N(C)CC(=O)N(C)[C@H]2C/C=C\CCN(C2=O)[C@@H](Cc2ccc(C(F)(F)F)cc2)C(=O)N(C)CC(=O)N[C@@H](CCc2ccc(C(F)(F)F)c(OC)c2)C(=O)N2C[C@@H](C)C[C@H]2C(=O)NC2(CCC2)C(=O)N(C)[C@@H](C2CCCC2)C(=O)N1C [PP2070] | A (a compound having 10 or more and less than 20 is denoted as A) | A (a compound having 10 or more and less than 20 is denoted as A) |  |  |
| 32.5 | CCCN1C(=O)CN(C)C(=O)CN(C)C(=O)[C@H]([C@@H](C)CC)NC(=O)[C@H](CC(C)C)N(C)C(=O)C[C@@H](C(=O)N2CCOCC2)N(C)C(=O)[C@H](C2CCCC2)N(C)C(=O)C2(CCC2)NC(=O)[C@@H]2CCCN2C(=O)[C@H](CCc2ccc(C(F)(F)F)c(Cl)c2)NC(=O)CN(CC)C(=O)[C@@H]1Cc1ccc(C(F)(F)F)cc1 [PP1950] ([NMeL]I[Sar][Sar][NPrPhe(4-CF3)][NEtG][hPhe(3-Cl-4-CF3)]P[Ac4c][NMeGly(cPent)][NMeD]-Morpholide; lactam N-11) | B (a compound having 3 or more and less than 10 is denoted as B) | C (A compound having a KD ratio of 0.1 or more and less than 3 is denoted as C) |  |  |
| 12.5 | CCO[C@@H]1C[C@H]2C(=O)NC3(CC(C)(C)C3)C(=O)N(C)[C@@H](C(CC)CC)C(=O)N(C)[C@H](C(=O)N(C)C)CC(=O)N(C)[C@@H](CC(C)C)C(=O)N[C@@H]([C@@H](C)CC)C(=O)N(C)CC(=O)N(C)[C@H]3C/C=C\CCN(C3=O)[C@@H](Cc3ccc(C(F)(F)F)cc3)C(=O)N(C)CC(=O)N[C@@H](CCc3cc(F)c(C(F)(F)F)c(F)c3)C(=O)N2C1 [PP2127] | AA (a compound having 20 or more is denoted as AA) | A (a compound having 10 or more and less than 20 is denoted as A) |  |  |
| 5 | CCC[C@H]1C(=O)N[C@@H]([C@@H](C)CC)C(=O)N(C)CC(=O)N(C)[C@H]2C/C=C\CCN(C2=O)[C@@H](Cc2ccc(C(F)(F)F)cc2)C(=O)N(C)CC(=O)N[C@@H](CCc2ccc(C(F)(F)F)c(Cl)c2)C(=O)N2CC3(CC3)C[C@H]2C(=O)NC2(CC(C)(C)C2)C(=O)N(C)[C@@H](CC(C)(C)C)C(=O)N(C)[C@H](C(=O)N(C)C)CC(=O)N1C [PP2979] |  |  | A (a compound having 10 or more and less than 20 is denoted as A) | B (a compound having 3 or more and less than 10 is denoted as B) |
| 6.1 | C#CC[C@H]1C(=O)N[C@@H]([C@@H](C)CC)C(=O)N(C)CC(=O)N(C)[C@H]2C/C=C\CCN(C2=O)[C@@H](Cc2ccc(C(F)(F)F)cc2)C(=O)N(C)CC(=O)N[C@@H](CCc2ccc(C(F)(F)F)c(OC)c2)C(=O)N2C[C@@H](C)C[C@H]2C(=O)NC2(CCC2)C(=O)N(C)[C@@H](C2CCCC2)C(=O)N(C)[C@H](C(=O)N(C)CC)CC(=O)N1C [PP2061] | AA (a compound having 20 or more is denoted as AA) | A (a compound having 10 or more and less than 20 is denoted as A) |  |  |

— EP4603105A1, “PHARMACEUTICAL COMPOSITION CONTAINING CYCLIC COMPOUND HAVING SELECTIVE KRAS INHIBITORY EFFECT AGAINST HRAS AND NRAS” (CHUGAI SEIYAKU KABUSHIKI KAISHA, priority 2022, dated 2024)
